Measured values from paper PMC3753236, “Glucocorticosteroids in Nano-Sterically Stabilized Liposomes Are Efficacious for Elimination of the Acute Symptoms of Experimental Cerebral Malaria” (PLoS ONE, 2013).
Structures can show the parent of a compound that is named as a salt. Where two headings read alike, the source gives them in different places.

Tests used:
[1] = tested on: non-chloroquine resistant P. falciparum; assay: P. falciparum culture, 3H-hypoxanthine incorporation; assay type: cell-based, Plasmodium falciparum; conditions: Plasmodium falciparum
Experimental: The parasite was grown in a human red blood cell culture (RPMI 1640, 7.5% bicarbonate, 50 µM hypoxanthine, 50 µg/ml gentamycin, and 7.5% human plasma) at 1% hematocrit and 2% parasitemia. Cultures containing predominantly ring forms were used; synchronization of the culture was performed if trophozoites represented more than 1–2% of the various developmental stages. Briefly, the culture was centrifuged and the supernatant replaced by 5% (isotonic) sorbitol. After 5 minutes at 37°C the culture was centrifuged again and the supernatant replaced by culture medium to obtain a final 1% hematocrit.
Drug testing was performed in 96-well microtiter plates incubated at 37°C in a 5% O2, 5% CO2, and 90% N2 gas mixture for 72 hours. After 48 hours, 1 µCi ^3H-hypoxanthine was added to each well and the plates were read the next day using a scintillation counter.

[2] = tested on: Plasmodium berghei ANKA (PbAus); assay: Early treatment of ECM, PbAus-inoculated C57Bl/6 mice (with sequential artemisone)
Experimental: (§1) Plasmodium berghei ANKA (PbA; PbA MRA-311, CDC, Atlanta, GA, USA) was maintained in vivo by serial transfer of parasitized erythrocytes (PE) from infected to naïve mice. Experiments were also performed using a second strain of PbA, similarly maintained, and designated PbAus in the text (courtesy of Prof. G. Grau, University of Sydney, Australia).
(§2) Parasitemia was monitored by thin blood smears prepared from tail blood. These were stained with a 25% Giemsa solution, examined under a light microscope, and parasitemia determined as the percent of infected red blood cells per 10,000 erythrocytes. Disease severity was determined according to scoring of neurological symptoms and changes in weight and temperature, as previously described […] Parasitemias above 20% and the absence of neurological symptoms indicated severe anemic malaria.
(§3) For early ECM treatment, injections were given on days 3, 5, 7, and 9 p.i; for late treatment, treatment was given every other day, starting on day 5 p.i. for a total of at least two injections. Infected, non-treated control mice were injected with 5% dextrose or empty nSSL. Clinical signs and parasitemias were monitored and disease severity scored as described […] At each time-point, at least 3 mice from each group were chosen at random, deeply anesthetized, and brains were removed following intracardial perfusion (using saline, if organs were destined for real-time (rt)PCR analysis, or saline/formalin, if organs were destined for histopathological analysis). Organs destined for rtPCR analysis were snap-frozen in liquid nitrogen and stored at −80°C until use. Organs destined for immunohistology were immediately immersed in cryoprotectant solution (see below).

[3] = tested on: Plasmodium berghei ANKA (PbAus); assay: Late-stage treatment of ECM followed by artemisone, PbAus-infected C57Bl/6 mice
Experimental: as §1, §2, §3

[4] = tested on: Plasmodium berghei ANKA (PbA); assay: Early treatment of experimental cerebral malaria (ECM), ICR mice infected with PbA
Experimental: as §1, §2
as §3, with “described […] Surviving mice were treated with 2×10 mg/kg/d artemisone by intraperitoneal injection in order to achieve cure; mice were monitored for four weeks post-artemisone treatment in order to allow detection of possible late recrudescence.” for “described”

[5] = cited from earlier work
ECM = tested on: ECM; parameters: method as in Clemmer et al. [28]; conditions: after the appearance of clinical signs of neuropathology; ref Clemmer et al. [28]; cited from earlier work
[6] = 72 h culture, 3H-hypoxanthine, read-out: IC50

## C[C@@H]1CC[C@H]2[C@@H](C)C(=O)O[C@@H]3O[C@@]4(C)CC[C@@H]1[C@]32OO4 [Artemisinin]
[1]; [6]
  IC50: 0.13 nM

## C[C@H]1[C@H](N2CCS(=O)(=O)CC2)O[C@@H]2O[C@@]3(C)CC[C@H]4[C@H](C)CC[C@@H]1[C@@]24OO3 [Artemisone, reference compound]
[1]; [6]
  IC50: 0.4 nM
[2]; 2×20 mg/kg artemisone i.p. days 11–15 p.i. after early 10 mg/kg nSSL-BMS, monitored four weeks for recrudescence
  Outcome of artemisone treatment following nSSL-BMS: complete cure
[2]; 2×20 mg/kg artemisone i.p. days 11–15 p.i. following early 10 mg/kg nSSL-BMS
  Time to zero parasitemia after the first injection (majority of cases): ≤ 24 h
[2]; 2×20 mg/kg/d artemisone days 11–15 p.i. after 10 mg/kg free or nSSL-BMS
  Mice that relapsed and died of ECM (of the total 17 administered artemisone): One
[2]; beginning on day 11 p.i.
  Outcome of artemisone monotherapy: ineffective
[3]; 2×20 mg/kg/d artemisone on days 11–15 p.i., monitored three weeks
  Outcome of artemisone after nSSL-BMS started day 5 p.i.: complete cure
[3]; all remaining mice died of severe anemic malaria
  Outcome of artemisone after nSSL-BMS started day 7 p.i.: ineffective
[3]; subsequent artemisone administration
  Outcome of artemisone after nSSL-BMS started day 6 p.i.: cure in all mice

## CCN(CC)CCCC(C)Nc1ccnc2cc(Cl)ccc12 (stereo not shown) [Chloroquine, chloroquine]
[1]
  IC50: 40 nM

## C[C@H]1[C@@H](O)O[C@@H]2O[C@@]3(C)CC[C@H]4[C@H](C)CC[C@@H]1[C@@]24OO3 [Dihydroartemisinin, dihydroartemisinin]
[1]; [6]
  IC50: 0.1 nM

## C[C@H]1C[C@@H]2[C@H]([C@@H](O)C[C@@]3(C)[C@H]2CC[C@]3(O)C(=O)COC(=O)CCC(=O)O)[C@@]2(C)C=CC(=O)C=C12 [MPS, methylprednisolone hemisuccinate sodium salt]
[1]; [6]
  IC50: 14000 nM
[4]; 10 mg/kg/d on days 3, 5, 7, 9 p.i.
  Survival rate on day 11: 33%
[4]; 25 mg/kg/d, preliminary experiments
  Toxicity in ECM mice: mild toxicity
[5]; ref [14]
  Potency relative to hydrocortisone: ~5 times

## C=C[C@H]1C[N@@]2CC[C@H]1C[C@H]2[C@H](O)c1ccnc2ccc(OC)cc12 [Quinine, quinine]
[1]; [6]
  IC50: 380 nM

## CO[C@H]1O[C@@H]2O[C@@]3(C)CC[C@H]4[C@H](C)CC[C@@H]([C@H]1C)[C@@]24OO3 [artemether]
ECM
  Success rate of ECM rescue therapy: 43–46%

## C[C@H]1[C@H](OC(=O)CCC(=O)O)O[C@@H]2O[C@@]3(C)CC[C@H]4[C@H](C)CC[C@@H]1[C@@]24OO3 [artesunate]
ECM
  Success rate of ECM rescue therapy: 43–46%

## C[C@H]1C[C@H]2[C@@H]3CCC4=CC(=O)C=C[C@]4(C)[C@@]3(F)[C@@H](O)C[C@]2(C)[C@@]1(O)C(=O)CO [β-methasone]
[5]; ref [15]
  Potency relative to hydrocortisone: 25–30 fold
